Source: ChEMBL document CHEMBL1201862, “PubChem BioAssay data set” (2004)
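Compound exposure: 48 hours, 5 concentrations, 96-well plates. At the GI50, growth is halved.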 Activity calls are given as the source filed them. Rule as the data show it: active = GI50 up to about 1.1 µM and inactive = higher.

Key:
Assay in all cases: growth of human tumour cells (NCI), 48 h
ACHN = system: ACHN
CCRF-CEM = system: CCRF-CEM
COLO 205 = system: COLO 205
DU-145 = system: DU-145
EKVX = system: EKVX
HCT-116 = system: HCT-116
HL-60 = system: HL-60
KM12 = system: KM12
M19-MEL = system: M19-MEL
MDA-MB-231 = system: MDA-MB-231
NCI-H226 = system: NCI-H226
NCI-H522 = system: NCI-H522
OVCAR-4 = system: OVCAR-4
OVCAR-5 = system: OVCAR-5
SNB-75 = system: SNB-75
SR = system: SR
SW-620 = system: SW-620
TK-10 = system: TK-10
UACC-257 = system: UACC-257
MDA-N = system: MDA-N

CC(=O)OC12COC1CC(O)C1(C)C(=O)C(O)C3=C(C)C(O)CC(O)(C(OC(=O)c4ccccc4)C21)C3(C)C (centres undefined)
GI50 (ACHN): 90.2 µM (inactive) | GI50 (CCRF-CEM): 3.8 µM (inactive) | GI50 (COLO 205): 1.14 µM (inactive) | GI50 (DU-145): 8.43 µM (inactive) | GI50 (EKVX): > 86.5 µM (inactive) | GI50 (HCT-116): 1.67 µM (inactive) | GI50 (HL-60): 2.52 µM (inactive) | GI50 (KM12): 0.839 µM (active) | GI50 (M19-MEL): 7.67 µM (inactive) | GI50 (MDA-MB-231): 7.91 µM (inactive) | GI50 (NCI-H226): 6.01 µM (inactive) | GI50 (NCI-H522): 0.638 µM (active) | GI50 (OVCAR-4): > 100 µM (inactive) | GI50 (OVCAR-5): 3.94 µM (inactive) | GI50 (SNB-75): 1.75 µM (inactive) | GI50 (SR): 5.12 µM (inactive) | GI50 (SW-620): 0.989 µM (active) | GI50 (TK-10): > 74 µM (inactive) | GI50 (UACC-257): 5 µM (inactive)

O=C1C=C(c2c(O)ccc3ccccc23)c2ccccc2C1=O
GI50 (ACHN): 3.44 µM (inactive) | GI50 (CCRF-CEM): 1.86 µM (inactive) | GI50 (COLO 205): 6.76 µM (inactive) | GI50 (DU-145): 10.9 µM (inactive) | GI50 (EKVX): 3.15 µM (inactive) | GI50 (HCT-116): 2.15 µM (inactive) | GI50 (HL-60): 2.65 µM (inactive) | GI50 (KM12): 3.77 µM (inactive) | GI50 (M19-MEL): 1.64 µM (inactive) | GI50 (MDA-MB-231): 3.85 µM (inactive) | GI50 (MDA-N): 2 µM (inactive) | GI50 (NCI-H226): 9.77 µM (inactive) | GI50 (NCI-H522): 1.61 µM (inactive) | GI50 (OVCAR-4): 1.92 µM (inactive) | GI50 (OVCAR-5): 10.7 µM (inactive) | GI50 (SNB-75): 3.87 µM (inactive) | GI50 (SW-620): 2.09 µM (inactive) | GI50 (TK-10): 12.1 µM (inactive) | GI50 (UACC-257): 2.39 µM (inactive)

CCOC(=O)C1=C(O)C(=O)c2ccccc2C1=O
GI50 (ACHN): > 100 µM (inactive) | GI50 (CCRF-CEM): > 100 µM (inactive) | GI50 (COLO 205): > 100 µM (inactive) | GI50 (EKVX): > 100 µM (inactive) | GI50 (HCT-116): > 100 µM (inactive) | GI50 (HL-60): > 100 µM (inactive) | GI50 (KM12): > 100 µM (inactive) | GI50 (M19-MEL): 22.2 µM (inactive) | GI50 (NCI-H226): 48.3 µM (inactive) | GI50 (NCI-H522): > 100 µM (inactive) | GI50 (OVCAR-4): > 100 µM (inactive) | GI50 (OVCAR-5): > 100 µM (inactive) | GI50 (SNB-75): > 100 µM (inactive) | GI50 (SR): > 100 µM (inactive) | GI50 (SW-620): > 100 µM (inactive) | GI50 (TK-10): > 100 µM (inactive) | GI50 (UACC-257): > 100 µM (inactive)

Clc1cccc(N2CCN(CCCN3CCc4c([nH]c5ccccc45)C3c3cccnc3)CC2)c1 (centres undefined)
GI50 (ACHN): 12.4 µM (inactive) | GI50 (CCRF-CEM): 6.76 µM (inactive) | GI50 (COLO 205): 2.88 µM (inactive) | GI50 (EKVX): 15.3 µM (inactive) | GI50 (HCT-116): 5.78 µM (inactive) | GI50 (HL-60): 2.46 µM (inactive) | GI50 (KM12): > 10 µM (inactive) | GI50 (M19-MEL): 10.5 µM (inactive) | GI50 (NCI-H226): 18.1 µM (inactive) | GI50 (NCI-H522): 11.8 µM (inactive) | GI50 (OVCAR-4): 6.98 µM (inactive) | GI50 (OVCAR-5): 7.66 µM (inactive) | GI50 (SNB-75): 11 µM (inactive) | GI50 (SR): 2.29 µM (inactive) | GI50 (SW-620): 13 µM (inactive) | GI50 (TK-10): > 10 µM (inactive) | GI50 (UACC-257): 4.34 µM (inactive)

COC(=O)/C(=N\Nc1nnc(C)n1N)C(C#N)c1ccccc1 (centres undefined)
GI50 (ACHN): 27.8 µM (inactive) | GI50 (CCRF-CEM): > 100 µM (inactive) | GI50 (COLO 205): > 63.2 µM (inactive) | GI50 (DU-145): > 100 µM (inactive) | GI50 (EKVX): > 100 µM (inactive) | GI50 (HCT-116): > 73.1 µM (inactive) | GI50 (HL-60): > 100 µM (inactive) | GI50 (KM12): > 100 µM (inactive) | GI50 (M19-MEL): 18.5 µM (inactive) | GI50 (MDA-MB-231): > 100 µM (inactive) | GI50 (MDA-N): 23.4 µM (inactive) | GI50 (NCI-H226): > 100 µM (inactive) | GI50 (NCI-H522): > 100 µM (inactive) | GI50 (OVCAR-4): > 40 µM (inactive) | GI50 (OVCAR-5): > 100 µM (inactive) | GI50 (SNB-75): > 64.9 µM (inactive) | GI50 (SW-620): > 86.5 µM (inactive) | GI50 (TK-10): > 100 µM (inactive) | GI50 (UACC-257): 40.6 µM (inactive)

C[C@]12CCC(=O)C(O)=C1CCC2=O
GI50 (ACHN): > 100 µM (inactive) | GI50 (CCRF-CEM): > 100 µM (inactive) | GI50 (COLO 205): > 100 µM (inactive) | GI50 (EKVX): > 100 µM (inactive) | GI50 (HCT-116): > 100 µM (inactive) | GI50 (HL-60): > 100 µM (inactive) | GI50 (KM12): > 100 µM (inactive) | GI50 (M19-MEL): > 100 µM (inactive) | GI50 (NCI-H226): > 100 µM (inactive) | GI50 (NCI-H522): > 100 µM (inactive) | GI50 (OVCAR-4): > 100 µM (inactive) | GI50 (OVCAR-5): > 100 µM (inactive) | GI50 (SNB-75): > 100 µM (inactive) | GI50 (SR): > 100 µM (inactive) | GI50 (SW-620): > 100 µM (inactive) | GI50 (TK-10): > 100 µM (inactive) | GI50 (UACC-257): > 100 µM (inactive)

CC(=O)OCCOCNC(=S)N/N=C/c1ccc([N+](=O)[O-])s1
GI50 (ACHN): 46.5 µM (inactive) | GI50 (CCRF-CEM): 4.72 µM (inactive) | GI50 (COLO 205): 2.08 µM (inactive) | GI50 (EKVX): 55.5 µM (inactive) | GI50 (HCT-116): 20.1 µM (inactive) | GI50 (HL-60): 3.81 µM (inactive) | GI50 (KM12): 34.4 µM (inactive) | GI50 (M19-MEL): 18.2 µM (inactive) | GI50 (NCI-H226): > 100 µM (inactive) | GI50 (NCI-H522): 11.2 µM (inactive) | GI50 (OVCAR-4): 64.1 µM (inactive) | GI50 (OVCAR-5): 37.3 µM (inactive) | GI50 (SNB-75): > 100 µM (inactive) | GI50 (SR): 9.68 µM (inactive) | GI50 (SW-620): 30.5 µM (inactive) | GI50 (TK-10): > 100 µM (inactive) | GI50 (UACC-257): 23.8 µM (inactive)

CCOC(=N)CC(=O)Nc1cccc(C)c1C
GI50 (ACHN): > 100 µM (inactive) | GI50 (CCRF-CEM): > 100 µM (inactive) | GI50 (COLO 205): > 100 µM (inactive) | GI50 (EKVX): > 100 µM (inactive) | GI50 (HCT-116): > 100 µM (inactive) | GI50 (HL-60): > 100 µM (inactive) | GI50 (KM12): > 100 µM (inactive) | GI50 (M19-MEL): > 100 µM (inactive) | GI50 (NCI-H226): > 100 µM (inactive) | GI50 (NCI-H522): > 100 µM (inactive) | GI50 (OVCAR-4): > 100 µM (inactive) | GI50 (OVCAR-5): > 100 µM (inactive) | GI50 (SNB-75): > 100 µM (inactive) | GI50 (SR): > 100 µM (inactive) | GI50 (SW-620): > 100 µM (inactive) | GI50 (TK-10): > 100 µM (inactive) | GI50 (UACC-257): > 100 µM (inactive)

Cc1cccc(C)c1N1C(=O)C(=O)C(c2nc3ccccc3s2)/C(=N/NC(=O)c2ccccc2O)C1=O (centres undefined)
GI50 (ACHN): 6.65 µM (inactive) | GI50 (CCRF-CEM): 4.8 µM (inactive) | GI50 (COLO 205): 27.4 µM (inactive) | GI50 (EKVX): 20.6 µM (inactive) | GI50 (HCT-116): 10.3 µM (inactive) | GI50 (HL-60): 12.5 µM (inactive) | GI50 (KM12): 35.2 µM (inactive) | GI50 (M19-MEL): 13.1 µM (inactive) | GI50 (NCI-H226): 13.7 µM (inactive) | GI50 (NCI-H522): 8.77 µM (inactive) | GI50 (OVCAR-4): 16.8 µM (inactive) | GI50 (OVCAR-5): 36.9 µM (inactive) | GI50 (SNB-75): 1.05 µM (active) | GI50 (SR): 8.45 µM (inactive) | GI50 (SW-620): 22.4 µM (inactive) | GI50 (TK-10): 25.1 µM (inactive) | GI50 (UACC-257): 23.3 µM (inactive)
